SMILES strings stand for the structures. “Also recorded” adds a separate entry of the source.

In one experiment the test system is SKOV-3 tumors. The experiment in a line: Tumor growth inhibition in vivo. The conditions noted are these: nude mice, subcutaneous SKOV-3 tumors; GDC-941 orally, II-a-3 I.P., 50-100 mg/Kg/QD, 21 days. As for the experimental part:
Tumor Growth Inhibition In Vivo
The in vivo experiment was performed at Piedmont Research Center (Research Triangle Park, N.C.). Nude mice were implanted with SKOV-3 tumors subcutaneously. […] Dosing continued for 21 days. Tumor volume was measured twice a week.

The next experiment has as its system PI3 kinase. The experiment can be described thus: Comparison of covalent and non-covalent inhibitors (Tables 18 and 19): prolonged PD, mechanism. The conditions noted are these: Table 19. How it is done:
“A” designates ≦10 nM; “B” designates 10-100 nM; and “C” designates 100-1000 nM

Experiment [1] concerns the target T1, PI3Kα (Homo sapiens, UniProt P42336). The experiment in a line: Trypsin digest and MS-MS analysis of compound-treated PI3Kα. In kind it is binding. Also noted: purchased Millipore 14-602. The conditions noted are these: in-gel trypsin digest. As for the experimental part: (§1) The PI3Kα protein band was then excised and subjected to an in-gel trypsin digest by reducing the protein with DTT, alkylating the thiols with iodoacetamide, and then incubating the protein gel band with trypsin overnight in a 37° C. water bath. The digest was then stopped by addition of trifluoroacetic acid, and peptides were removed from gel band by sonicating with increasing amounts of acetonitrile (0%, 30%, & 60%). Peptides were then purified using C18 ziptips, spotted on the MALDI target plate with α-cyano-4-hydroxycinnamic acid as the desorption matrix (10 mg/ml in 0.1% TFA:Acetonitrile 50:50), and analyzed in reflectron mode.
as §1, with “trifluoro acetic” for “trifluoroacetic”
Target sequence in this assay (P42336 whole entry): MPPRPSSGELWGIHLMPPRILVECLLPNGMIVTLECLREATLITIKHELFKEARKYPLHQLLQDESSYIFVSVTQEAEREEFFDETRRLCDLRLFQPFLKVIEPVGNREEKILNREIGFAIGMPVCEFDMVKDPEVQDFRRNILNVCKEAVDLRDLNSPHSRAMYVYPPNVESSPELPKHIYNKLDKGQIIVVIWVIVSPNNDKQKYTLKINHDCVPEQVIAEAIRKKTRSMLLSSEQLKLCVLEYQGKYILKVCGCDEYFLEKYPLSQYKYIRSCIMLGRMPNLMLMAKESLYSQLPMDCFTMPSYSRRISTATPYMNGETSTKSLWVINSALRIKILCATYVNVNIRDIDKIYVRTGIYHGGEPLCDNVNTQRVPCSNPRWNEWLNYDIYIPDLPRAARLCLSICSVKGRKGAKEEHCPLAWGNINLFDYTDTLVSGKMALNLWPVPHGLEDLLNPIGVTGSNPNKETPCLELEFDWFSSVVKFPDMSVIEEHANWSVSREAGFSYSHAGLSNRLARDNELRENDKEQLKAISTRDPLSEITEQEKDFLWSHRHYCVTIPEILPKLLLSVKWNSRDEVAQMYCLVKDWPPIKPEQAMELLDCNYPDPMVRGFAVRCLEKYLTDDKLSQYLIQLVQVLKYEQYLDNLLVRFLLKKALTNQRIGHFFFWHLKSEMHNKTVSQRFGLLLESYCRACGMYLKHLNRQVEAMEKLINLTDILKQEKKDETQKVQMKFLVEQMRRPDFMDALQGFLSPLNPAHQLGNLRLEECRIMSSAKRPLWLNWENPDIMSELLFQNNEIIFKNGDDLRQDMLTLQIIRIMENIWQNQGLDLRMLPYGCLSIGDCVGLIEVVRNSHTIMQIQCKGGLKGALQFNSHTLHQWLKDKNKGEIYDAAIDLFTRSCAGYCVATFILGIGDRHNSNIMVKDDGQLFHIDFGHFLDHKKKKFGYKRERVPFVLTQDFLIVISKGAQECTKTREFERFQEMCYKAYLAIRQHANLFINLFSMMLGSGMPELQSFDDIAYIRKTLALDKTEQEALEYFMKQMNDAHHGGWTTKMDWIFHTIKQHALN
Target sequence in this assay (P27986 whole entry partner): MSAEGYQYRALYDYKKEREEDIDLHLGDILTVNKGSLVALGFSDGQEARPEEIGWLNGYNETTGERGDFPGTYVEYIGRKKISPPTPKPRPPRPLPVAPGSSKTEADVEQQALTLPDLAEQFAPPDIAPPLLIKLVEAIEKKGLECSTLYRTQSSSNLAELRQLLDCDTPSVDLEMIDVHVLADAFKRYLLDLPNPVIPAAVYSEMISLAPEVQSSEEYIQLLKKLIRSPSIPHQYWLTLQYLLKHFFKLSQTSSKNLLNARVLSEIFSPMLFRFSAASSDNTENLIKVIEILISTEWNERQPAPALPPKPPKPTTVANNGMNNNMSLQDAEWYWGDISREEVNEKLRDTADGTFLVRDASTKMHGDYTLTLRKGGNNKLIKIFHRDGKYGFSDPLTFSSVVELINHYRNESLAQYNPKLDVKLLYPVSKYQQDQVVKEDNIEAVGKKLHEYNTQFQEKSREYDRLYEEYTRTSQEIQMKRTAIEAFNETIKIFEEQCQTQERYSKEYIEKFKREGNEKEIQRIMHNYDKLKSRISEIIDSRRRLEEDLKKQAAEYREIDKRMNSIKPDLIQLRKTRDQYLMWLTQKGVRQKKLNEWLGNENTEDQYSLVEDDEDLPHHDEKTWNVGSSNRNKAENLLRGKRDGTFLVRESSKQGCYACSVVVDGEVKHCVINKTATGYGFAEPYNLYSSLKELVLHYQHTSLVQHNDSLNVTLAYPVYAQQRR

A further experiment concerns PI3K. The experiment can be described thus: PI3K HCT116 cellular assay (Western blot). In kind it is cell-based. The following applies: Homo sapiens, HCT-116, HCT116 colon cancer cells, 1 hour incubation, read-out: PI3K Inhibition. As for the experimental part:
PI3K HCT116 Cellular Assay
Selected compounds were assayed in HCT116 colon cancer cells. […] Cells were then washed with PBS, lysed and the protein lysates were then recovered and analyzed by Western blot.

In another experiment the test system is SK-OV-3 cells. The experiment in a line: SK-OV-3 cell proliferation assay. The following applies: Homo sapiens; SK-OV-3 proliferation, 72 hours, Cell Titer Glo. In kind it is cell-based. How it is done: SK-OV-3 Cell Proliferation Assay
For the SK-OV-3 proliferation Assay, 5000 cells per well were plated in Growth Media (DMEM, 10% FBS, 1% 1-glutamine, 1% penicillin/streptomycin) in 96 well plates. The following day, compounds were added to duplicate wells at concentrations of 10 uM and 3-fold dilutions down to 40 nM. The plates were returned to the incubator for 72 hours and then the assays were developed using Cell Titer Glo (Promega, Madison, Wis.) according to manufacturer's instructions.
In general terms: Cellular ATP, detected with luciferase, serves as a proxy for viable cell number.

Experiment [2] addresses T1, PI3Kα. The experiment can be described thus: Mass spectrometry of intact PI3Kα (Johns Hopkins), 3 hr incubation. Also noted: Johns Hopkins. In kind it is binding. The following applies: 10× fold excess of compound, MALDI. How it is done: Mass Spectrometry for PI3K
Intact PI3Kα (Johns Hopkins) was incubated for 3 hr at a 10× fold excess of II-a-45 or II-a-49 to protein. Aliquots (3 μL) of the samples were diluted with 10 μL of 0.1% TFA prior to micro C4 ZipTipping directly onto the MALDI target using Sinapinic acid as the desorption matrix (10 mg/ml in 0.1% TFA:Acetonitrile 50:50).
Target sequence in this assay (P42336 whole entry): as the sequence (P42336 whole entry) above
Target sequence in this assay (P27986 322-600 partner limits assumed): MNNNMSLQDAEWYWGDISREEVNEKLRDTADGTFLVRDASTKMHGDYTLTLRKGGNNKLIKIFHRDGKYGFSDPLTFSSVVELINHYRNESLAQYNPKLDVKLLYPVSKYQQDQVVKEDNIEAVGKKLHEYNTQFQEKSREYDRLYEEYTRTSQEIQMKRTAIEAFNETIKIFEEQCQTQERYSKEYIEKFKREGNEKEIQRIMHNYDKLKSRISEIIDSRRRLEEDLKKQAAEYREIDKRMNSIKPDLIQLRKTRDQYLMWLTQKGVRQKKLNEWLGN

As to `CC(C)=CC(=O)CCC(=O)N1CCN(Cc2cc3nc(-c4cccc5[nH]ncc45)nc(N4CCOCC4)c3s2)CC1` [II-a-3, 1-(4-((2-(1H-indazol-4-yl)-4-morpholinothieno[3,2-d]pyrimidin-6-yl)methyl)piperazin-1-yl)-6-methylhept-5-ene-1,4-dione], the tumor growth result in the experiment on SKOV-3 tumors is “Inhibition of tumor growth”. For the same compound, the “Prolonged PD” value in the experiment with PI3 kinase is reported as “Yes”. Also, the “site on PI3Kα that is covalently modified” value at PI3Kα [1] is on record as “Cys-862; also recorded: peptide ^853NSHTIMQIQCK^863”.

As for `C/C=C/C(=O)CCC(=O)N1CCN(Cc2cc3nc(-c4cccc5[nH]ncc45)nc(N4CCOCC4)c3s2)CC1` [II-a-36, (E)-1-(4-((2-(1H-indazol-4-yl)-4-morpholinothieno[3,2-d]pyrimidin-6-yl)methyl)piperazin-1-yl)hept-5-ene-1,4-dione], the values for the EC50 in the experiment on PI3K and with SK-OV-3 cells were less than 20 nM and 100 to 1000 nM, respectively. In addition, the “covalent modification of PI3Kα” value on PI3Kα [2] is listed as “completely modify”.

Values taken from patent US20110230476A1, “PI3 KINASE INHIBITORS AND USES THEREOF” (AVILA THERAPEUTICS, INC., priority 2009, published 2011).
